# How the values were obtained:
# [1] = target: Macrophage colony-stimulating factor 1 receptor (Homo sapiens) (UniProt P07333); conditions: at 10 µM
# [2] = target: Protein arginine N-methyltransferase 1 (Homo sapiens, UniProt Q99873); assay: Selectivity interaction (Methyltransferase screen (radiometric assays, panel of 8 PRMTs, 21 protein lysine methyltransferases, 3 DNA methyltransferases, and one RNA methyltransferase)) EUB0000271b PRMT1
# [3] = target: Serine/threonine-protein kinase PRP4 homolog (Homo sapiens) (UniProt Q13523); assay: Selectivity interaction (KinomeScan (DiscoverX)) EUB0000092b PRPF4B; conditions: at 10 µM
# Chain of Serine/threonine-protein kinase PRP4 homolog (Homo sapiens) (Q13523 whole entry): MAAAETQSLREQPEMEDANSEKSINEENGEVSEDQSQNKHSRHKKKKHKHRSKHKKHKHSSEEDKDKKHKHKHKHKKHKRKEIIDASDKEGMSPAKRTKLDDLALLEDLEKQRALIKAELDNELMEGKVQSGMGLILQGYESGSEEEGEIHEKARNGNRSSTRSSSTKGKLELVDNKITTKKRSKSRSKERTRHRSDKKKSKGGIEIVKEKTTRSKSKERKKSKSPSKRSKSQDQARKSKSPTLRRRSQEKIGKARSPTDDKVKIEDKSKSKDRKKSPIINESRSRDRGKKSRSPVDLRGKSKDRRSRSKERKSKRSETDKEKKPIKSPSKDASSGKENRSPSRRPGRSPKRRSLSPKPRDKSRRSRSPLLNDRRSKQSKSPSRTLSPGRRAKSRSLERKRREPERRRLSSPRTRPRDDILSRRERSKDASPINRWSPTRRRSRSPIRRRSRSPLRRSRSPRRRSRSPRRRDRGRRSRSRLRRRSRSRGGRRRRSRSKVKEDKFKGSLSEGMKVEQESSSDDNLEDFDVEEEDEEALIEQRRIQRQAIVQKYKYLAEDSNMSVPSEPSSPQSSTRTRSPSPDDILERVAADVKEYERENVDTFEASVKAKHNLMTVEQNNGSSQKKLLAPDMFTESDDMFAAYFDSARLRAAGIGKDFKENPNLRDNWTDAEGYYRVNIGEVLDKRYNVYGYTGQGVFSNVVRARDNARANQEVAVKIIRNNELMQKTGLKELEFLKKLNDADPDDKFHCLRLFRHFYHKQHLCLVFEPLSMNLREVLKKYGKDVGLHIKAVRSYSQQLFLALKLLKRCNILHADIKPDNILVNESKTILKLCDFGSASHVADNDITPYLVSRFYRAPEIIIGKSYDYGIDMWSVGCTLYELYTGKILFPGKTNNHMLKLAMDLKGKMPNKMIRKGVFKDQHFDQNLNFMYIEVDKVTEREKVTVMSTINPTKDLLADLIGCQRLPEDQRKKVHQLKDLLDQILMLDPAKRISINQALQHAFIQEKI
# [4] = target: T1, Serine/threonine-protein kinase D2 (Homo sapiens) (UniProt Q9BZL6); assay: Selectivity interaction (KinomeScan (DiscoverX)) EUB0000045b PRKD2
# T1 sequence (whole entry): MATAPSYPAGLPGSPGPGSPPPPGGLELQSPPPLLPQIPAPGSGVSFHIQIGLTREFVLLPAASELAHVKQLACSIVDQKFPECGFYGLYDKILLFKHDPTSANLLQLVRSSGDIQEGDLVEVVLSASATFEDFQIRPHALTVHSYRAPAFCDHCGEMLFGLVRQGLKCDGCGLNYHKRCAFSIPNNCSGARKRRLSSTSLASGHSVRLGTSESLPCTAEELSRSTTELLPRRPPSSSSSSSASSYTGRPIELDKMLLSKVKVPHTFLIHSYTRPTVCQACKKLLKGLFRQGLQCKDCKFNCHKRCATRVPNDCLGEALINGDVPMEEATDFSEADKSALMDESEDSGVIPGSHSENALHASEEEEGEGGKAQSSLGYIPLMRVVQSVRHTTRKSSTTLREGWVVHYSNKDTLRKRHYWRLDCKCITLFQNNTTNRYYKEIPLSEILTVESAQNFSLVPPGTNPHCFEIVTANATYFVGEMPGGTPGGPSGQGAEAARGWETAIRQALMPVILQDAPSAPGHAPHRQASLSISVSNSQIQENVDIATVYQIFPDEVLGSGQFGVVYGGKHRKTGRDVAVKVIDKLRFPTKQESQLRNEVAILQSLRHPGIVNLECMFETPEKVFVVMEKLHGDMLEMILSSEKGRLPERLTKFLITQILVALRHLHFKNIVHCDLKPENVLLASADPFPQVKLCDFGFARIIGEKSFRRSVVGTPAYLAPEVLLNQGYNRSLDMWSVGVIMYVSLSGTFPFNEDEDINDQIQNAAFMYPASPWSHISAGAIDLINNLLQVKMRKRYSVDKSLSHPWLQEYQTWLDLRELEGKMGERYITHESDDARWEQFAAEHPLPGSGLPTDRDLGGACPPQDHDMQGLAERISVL
# [5] = target: T2, Serine/threonine-protein kinase Nek1 (Homo sapiens) (UniProt Q96PY6); assay: Selectivity interaction (KinomeScan (DiscoverX)) EUB0000618a NEK1; conditions: at 10 µM
# T2 sequence (whole entry): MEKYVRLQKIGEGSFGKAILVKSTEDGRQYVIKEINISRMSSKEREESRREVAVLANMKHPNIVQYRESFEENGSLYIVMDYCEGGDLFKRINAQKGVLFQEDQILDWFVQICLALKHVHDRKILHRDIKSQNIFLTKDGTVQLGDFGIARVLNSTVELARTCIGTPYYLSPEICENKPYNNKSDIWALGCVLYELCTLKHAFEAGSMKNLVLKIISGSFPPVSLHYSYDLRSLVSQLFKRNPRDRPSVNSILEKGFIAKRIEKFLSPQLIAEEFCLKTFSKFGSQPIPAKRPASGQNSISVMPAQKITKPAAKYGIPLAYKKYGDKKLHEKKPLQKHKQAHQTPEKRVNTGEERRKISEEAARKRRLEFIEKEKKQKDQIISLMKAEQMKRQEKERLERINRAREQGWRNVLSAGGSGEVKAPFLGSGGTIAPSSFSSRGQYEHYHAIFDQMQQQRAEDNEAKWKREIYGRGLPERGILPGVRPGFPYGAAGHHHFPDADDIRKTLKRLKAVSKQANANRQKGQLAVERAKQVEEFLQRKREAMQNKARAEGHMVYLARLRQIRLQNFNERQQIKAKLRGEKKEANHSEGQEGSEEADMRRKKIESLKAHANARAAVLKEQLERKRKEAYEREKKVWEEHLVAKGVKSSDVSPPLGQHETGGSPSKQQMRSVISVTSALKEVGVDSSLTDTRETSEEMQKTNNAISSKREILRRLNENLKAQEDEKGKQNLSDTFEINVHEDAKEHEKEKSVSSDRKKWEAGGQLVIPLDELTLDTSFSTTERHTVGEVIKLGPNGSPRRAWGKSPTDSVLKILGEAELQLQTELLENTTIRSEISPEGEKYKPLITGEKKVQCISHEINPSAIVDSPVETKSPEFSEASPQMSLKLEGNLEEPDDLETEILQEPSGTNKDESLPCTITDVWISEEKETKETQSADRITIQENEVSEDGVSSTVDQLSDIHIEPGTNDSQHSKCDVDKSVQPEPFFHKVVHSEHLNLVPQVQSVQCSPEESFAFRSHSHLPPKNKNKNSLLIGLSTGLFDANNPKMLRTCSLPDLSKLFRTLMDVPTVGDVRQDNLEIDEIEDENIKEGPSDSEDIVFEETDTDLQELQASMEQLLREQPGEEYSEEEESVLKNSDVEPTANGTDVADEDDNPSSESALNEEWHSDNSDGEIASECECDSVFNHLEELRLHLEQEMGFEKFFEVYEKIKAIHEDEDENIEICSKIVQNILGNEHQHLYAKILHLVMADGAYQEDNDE
# [6] = target: Interferon-induced, double-stranded RNA-activated protein kinase (Homo sapiens) (UniProt P19525); assay: Selectivity interaction (Kinase panel (KiNativ target engagement assay in Jurkat cells)) EUB0001635a EIF2AK2; assay type: cell-based; conditions: Selectivity number of off-targets 0.0, Selectivity number of targets 233.0, Source Knowledge https://www.sciencedirect.com/science/article/pii/S2451945619300674?via%3Dihub, at 1 µM
# Chain of Interferon-induced, double-stranded RNA-activated protein kinase (Homo sapiens) (P19525 whole entry): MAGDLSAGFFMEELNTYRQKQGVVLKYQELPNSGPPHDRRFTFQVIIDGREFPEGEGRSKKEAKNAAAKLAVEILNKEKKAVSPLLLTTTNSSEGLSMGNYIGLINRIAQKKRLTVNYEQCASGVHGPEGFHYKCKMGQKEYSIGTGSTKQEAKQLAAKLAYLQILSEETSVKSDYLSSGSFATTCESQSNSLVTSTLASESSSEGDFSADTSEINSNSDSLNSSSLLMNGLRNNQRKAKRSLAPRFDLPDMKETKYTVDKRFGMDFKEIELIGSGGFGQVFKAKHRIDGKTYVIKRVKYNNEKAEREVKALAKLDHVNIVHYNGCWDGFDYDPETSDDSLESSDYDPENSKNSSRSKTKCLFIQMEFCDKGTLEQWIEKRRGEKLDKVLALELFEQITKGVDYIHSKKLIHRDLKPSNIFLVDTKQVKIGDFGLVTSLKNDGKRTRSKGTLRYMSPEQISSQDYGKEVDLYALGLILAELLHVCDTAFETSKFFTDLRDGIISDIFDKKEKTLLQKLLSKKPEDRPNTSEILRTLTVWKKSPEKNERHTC
# [7] = target: T3, Dual specificity mitogen-activated protein kinase kinase 7 (Homo sapiens) (UniProt O14733); assay: Selectivity interaction (KinomeScan (DiscoverX)) EUB0000666a MAP2K7; conditions: at 10 µM
# T3 sequence (whole entry): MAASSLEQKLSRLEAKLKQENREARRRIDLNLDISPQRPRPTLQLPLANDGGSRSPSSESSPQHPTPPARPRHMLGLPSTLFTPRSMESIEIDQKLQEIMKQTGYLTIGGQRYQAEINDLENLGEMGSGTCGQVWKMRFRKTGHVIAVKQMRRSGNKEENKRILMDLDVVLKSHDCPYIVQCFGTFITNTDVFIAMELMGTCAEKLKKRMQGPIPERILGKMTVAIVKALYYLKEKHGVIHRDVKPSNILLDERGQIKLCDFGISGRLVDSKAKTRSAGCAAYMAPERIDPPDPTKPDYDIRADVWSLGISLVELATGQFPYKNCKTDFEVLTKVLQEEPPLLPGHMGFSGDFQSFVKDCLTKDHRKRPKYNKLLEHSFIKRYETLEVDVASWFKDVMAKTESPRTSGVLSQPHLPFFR
# Chain of Protein arginine N-methyltransferase 1 (Q99873 whole entry, looked up): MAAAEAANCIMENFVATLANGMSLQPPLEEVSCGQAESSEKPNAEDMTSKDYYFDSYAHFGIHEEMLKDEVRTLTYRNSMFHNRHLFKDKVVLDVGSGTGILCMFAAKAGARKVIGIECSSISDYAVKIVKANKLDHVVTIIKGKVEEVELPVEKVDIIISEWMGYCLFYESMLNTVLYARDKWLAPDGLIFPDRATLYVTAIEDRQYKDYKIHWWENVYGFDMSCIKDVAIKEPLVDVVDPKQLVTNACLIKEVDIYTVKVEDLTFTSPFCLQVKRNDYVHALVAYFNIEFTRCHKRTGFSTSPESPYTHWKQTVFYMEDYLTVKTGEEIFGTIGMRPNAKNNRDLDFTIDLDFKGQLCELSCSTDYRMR
# Chain of Macrophage colony-stimulating factor 1 receptor (Homo sapiens) (P07333 whole entry): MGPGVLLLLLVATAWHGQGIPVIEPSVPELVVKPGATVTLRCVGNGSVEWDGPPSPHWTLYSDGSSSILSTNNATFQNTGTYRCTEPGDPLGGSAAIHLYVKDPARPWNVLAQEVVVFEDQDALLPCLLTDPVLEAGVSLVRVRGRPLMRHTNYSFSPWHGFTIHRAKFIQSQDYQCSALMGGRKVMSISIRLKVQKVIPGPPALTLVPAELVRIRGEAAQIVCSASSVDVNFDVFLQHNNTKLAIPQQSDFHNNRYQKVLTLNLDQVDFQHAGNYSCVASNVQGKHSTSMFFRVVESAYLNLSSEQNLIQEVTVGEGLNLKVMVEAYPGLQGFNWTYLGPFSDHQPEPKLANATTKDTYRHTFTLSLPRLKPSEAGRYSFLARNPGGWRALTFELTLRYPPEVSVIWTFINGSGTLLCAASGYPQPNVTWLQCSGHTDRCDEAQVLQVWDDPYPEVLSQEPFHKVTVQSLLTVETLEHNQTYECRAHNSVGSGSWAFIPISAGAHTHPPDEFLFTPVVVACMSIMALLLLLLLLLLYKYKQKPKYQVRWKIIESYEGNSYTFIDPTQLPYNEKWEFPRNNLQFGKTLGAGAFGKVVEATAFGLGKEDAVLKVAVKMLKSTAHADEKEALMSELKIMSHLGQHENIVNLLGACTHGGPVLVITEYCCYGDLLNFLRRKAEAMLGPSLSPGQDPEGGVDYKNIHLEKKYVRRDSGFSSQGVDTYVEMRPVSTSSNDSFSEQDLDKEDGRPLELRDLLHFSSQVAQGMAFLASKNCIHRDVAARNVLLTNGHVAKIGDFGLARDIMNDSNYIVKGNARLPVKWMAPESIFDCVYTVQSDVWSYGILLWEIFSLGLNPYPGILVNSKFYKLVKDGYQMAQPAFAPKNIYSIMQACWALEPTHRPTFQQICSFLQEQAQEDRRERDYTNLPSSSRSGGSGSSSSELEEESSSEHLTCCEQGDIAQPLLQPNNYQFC
smiles,measurement,setting,value
Cc1cc([C@@H](C)Nc2ccccc2C(=O)O)c2nc(N3CCOCC3)cc(=O)n2c1 [AZD-6482],% of control,[1],94%
Cc1cc(C)cc([C@@H]2c3cc(C)ccc3NC(=O)CN2C(=O)c2ccc(Br)s2)c1,% of activity,[2]; at 1 µM,98.3%
same,% of activity,[2]; at 10 µM,94.3%
CCC(=O)N1CCN(c2ccc(-n3c(=O)ccc4cnc5ccc(-c6cnc7ccccc7c6)cc5c43)cc2C(F)(F)F)CC1,% of control,[3],100%
C=CC(=O)Nc1cc(-n2c(=O)ccc3cnc4ccc(-c5ccc(NS(C)(=O)=O)cc5)cc4c32)ccc1C,% of control,[4]; at 1 µM,87%
same,% of control,[4]; at 10 µM,82%
O[C@H]1CC[C@H](Nc2ncc3nc(Nc4c(F)cc(F)cc4F)n([C@H]4CCOC4)c3n2)CC1,% of control,[5],97%
C=CC(=O)Nc1ccc(C(=O)Nc2[nH]nc3c2CN(C(=O)N[C@H](CN(C)C)c2ccccc2)C3(C)C)cc1,% of engagement,[6],-0.6%
O=C(NOC[C@H](O)CO)c1ccc(F)c(F)c1Nc1ccc(I)cc1F,% of control,[7],100%

# From ChEMBL document CHEMBL5465560, “Selectivity Literature for EUbOPEN Chemogenomic Library” (2024)
